Key:
human NK1 receptor = human NK1 receptor (Homo sapiens (Human), UniProt P25103); experiment: Affinity for human NK1 receptor (125I-substance P receptor binding test, membrane fraction); settings: membrane fraction of human NK1 receptor-expressing 293T cells; read-out: IC50 (nM), concentration required for 50% inhibition of 125I-substance P binding
Outline: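 Membranes from cells transiently expressing human NK1 receptor (8 to 10 μg/well) in Tris buffer with 3 mM MnCl2, 0.02% BSA, pH 7.4, incubated with ^125I-substance P and compound (final 1 nM to 100 nM) 60 min at room temperature. Filtration and scintillation counting gave binding % versus vehicle; IC50 by linear approximation.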

[1] = Measurement of drug concentrations in the brain after foot-tapping; type: in vivo; settings: male gerbil, 0.1 mg/kg iv, after foot-tapping was finished
Outline: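 Male gerbils given 0.1 mg/kg test compound i.v. (jugular vein) under isoflurane; 4 h later GR73632 (5 pmol/5 μl saline) injected intracerebroventricularly. Foot-tapping measured for 30 min after righting-reflex recovery; inhibition % relative to solvent-treated animals. Brain and plasma then collected, compound quantified by LC/MS.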

hERG channel = hERG channel (Homo sapiens (Human), UniProt Q12809); experiment: Evaluation of hERG current (whole-cell patch clamp); type: cell-based; settings: 10 μM, application for 10 minutes, HEK293 cells, n = 3, average ± standard error
Sequence of hERG channel (Q12809 whole entry): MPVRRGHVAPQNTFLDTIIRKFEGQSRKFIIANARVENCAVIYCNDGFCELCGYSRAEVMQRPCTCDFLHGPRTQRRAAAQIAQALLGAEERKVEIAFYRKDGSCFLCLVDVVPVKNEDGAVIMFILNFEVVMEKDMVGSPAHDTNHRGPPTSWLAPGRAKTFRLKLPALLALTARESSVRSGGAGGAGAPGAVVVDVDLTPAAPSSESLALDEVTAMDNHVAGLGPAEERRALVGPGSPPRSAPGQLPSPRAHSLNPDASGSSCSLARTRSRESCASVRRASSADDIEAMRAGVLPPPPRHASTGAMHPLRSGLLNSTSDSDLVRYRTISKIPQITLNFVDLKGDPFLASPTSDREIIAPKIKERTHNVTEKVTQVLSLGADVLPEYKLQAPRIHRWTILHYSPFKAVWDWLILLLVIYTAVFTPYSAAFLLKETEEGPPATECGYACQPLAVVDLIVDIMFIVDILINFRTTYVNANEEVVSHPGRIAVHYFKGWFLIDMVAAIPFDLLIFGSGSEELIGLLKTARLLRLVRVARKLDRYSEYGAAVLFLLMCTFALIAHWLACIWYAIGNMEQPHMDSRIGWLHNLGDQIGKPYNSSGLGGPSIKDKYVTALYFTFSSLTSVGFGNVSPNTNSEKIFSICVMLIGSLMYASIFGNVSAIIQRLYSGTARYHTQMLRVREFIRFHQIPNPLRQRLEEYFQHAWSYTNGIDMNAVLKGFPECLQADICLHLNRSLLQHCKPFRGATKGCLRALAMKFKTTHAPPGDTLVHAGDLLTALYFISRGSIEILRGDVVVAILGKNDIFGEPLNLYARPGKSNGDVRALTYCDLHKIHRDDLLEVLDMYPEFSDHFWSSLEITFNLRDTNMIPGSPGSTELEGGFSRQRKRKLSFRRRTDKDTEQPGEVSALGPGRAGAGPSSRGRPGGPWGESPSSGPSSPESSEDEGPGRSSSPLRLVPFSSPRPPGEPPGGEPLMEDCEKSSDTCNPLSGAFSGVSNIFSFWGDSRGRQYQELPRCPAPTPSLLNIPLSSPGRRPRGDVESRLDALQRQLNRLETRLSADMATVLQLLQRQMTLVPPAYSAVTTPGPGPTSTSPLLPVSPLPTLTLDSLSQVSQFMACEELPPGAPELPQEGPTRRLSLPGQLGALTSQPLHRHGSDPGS
Method: Evaluation of hERG Current
A dimethyl sulfoxide (DMSO) solution of the test compound with a concentration 1000 times higher than the evaluation concentration (10 μM) was prepared, and a solution with a final application concentration was prepared by diluting the solution. The hERG current was measured by a whole-cell method using a patch clamp system, where a cover glass on which hERG channel-expressing human embryonic kidney (HEK) 293 cells were seeded was placed on a perfusion bath and a perfusion solution was caused to flow. The change in the hERG channel-derived current caused by a pulse protocol (holding potential of −80 mV, depolarization pulse of +20 mV for 1.9 seconds, repolarization pulse of −50 mV for 2 seconds, stimulated at intervals of 15 seconds) of data acquisition/analysis software, pCLAMP9 (Axon instruments. Inc.) was measured. The measurement conditions were a flow rate of about 1.5 mL/min and a temperature of about 33° C. Two wave forms immediately before applying the test compound and two wave forms immediately after the application for 10 minutes were analyzed, and the statistical analysis was performed. The value before the application of the test compound was regarded as 100%, and the change rate based on the value was determined.
In the table, Ex. No. means the Example number, and the change rate is the average±the standard error.

Sequence of human NK1 receptor (P25103 whole entry): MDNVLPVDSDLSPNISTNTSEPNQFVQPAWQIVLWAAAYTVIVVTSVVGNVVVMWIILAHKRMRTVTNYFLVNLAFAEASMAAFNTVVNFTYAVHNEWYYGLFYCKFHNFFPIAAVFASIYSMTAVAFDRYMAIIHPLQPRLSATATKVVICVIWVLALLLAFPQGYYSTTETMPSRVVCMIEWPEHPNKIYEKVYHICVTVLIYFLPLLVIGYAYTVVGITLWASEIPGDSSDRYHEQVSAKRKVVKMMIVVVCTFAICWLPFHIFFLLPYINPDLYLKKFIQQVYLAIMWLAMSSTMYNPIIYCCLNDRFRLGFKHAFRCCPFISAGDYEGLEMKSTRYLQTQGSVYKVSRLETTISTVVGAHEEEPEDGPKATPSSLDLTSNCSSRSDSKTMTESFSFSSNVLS

## Cc1cc(F)ccc1-c1cc([C@H]2CC[C@@H](CC(=O)O)CC2)ncc1N(C)C(=O)C(C)(C)c1cc(C(F)(F)F)cc(C(F)(F)F)c1 [Example 14, cis-{4-[5-{[2-(3,5-bistrifluoromethylphenyl)-2-methylpropionyl]methylamino}-4-(4-fluoro-2-methylphenyl)pyridin-2-yl]cyclohexyl}acetic acid]
Human NK1 receptor
  IC50: 2.21 nM
[1]
  Conc. (nM), drug concentration in the brain: 40 nM
hERG channel
  hERG current change rate % (value before application = 100%): 80.3 ± 3.9%
